According to patent US20230145868A1, “UREA INHIBITORS OF MICRO-RNA” (Board of Regents, The University of Texas System, priority 2020, published 2023):

Key:
miR-10b [1] = test: Luciferase reporter assay of miR-10b inhibition, MDA-MB-231 cells; type: cell-based; settings: Homo sapiens, MDA-MB-231, 48 h
From the text: (§1) To identify miR-10b inhibitors, a luciferase reporter system was designed with complementary oligonucleotides for miR-10b.This luciferase reporter would repress Renilla luciferase signal in the presence of a functional mature miR-10b. However, in the presence of a small molecule that can inhibit mature miR-10b expression or affect its downstream function, the luciferase expression is restored again.
(§2) The PsiCHECK™-2 luciferase reporter vector was acquired from Promega™, Complementary oligonucleotides for hsa-miR-10b were designed based on the mature miRNA sequence and obtained from Thermo Fisher Scientific. In the design of the microRNA target sequence, several base pairs were added to have two different restriction sites recognizable by the enzyme SgfI at one side, and PmeI on the other (present in the vector as well). In addition, the insert was designed with a restriction site for SacI enzyme in order to have an additional site to digest the vector when monitoring colonies for the presence/absence of the insert. The designed oligonucleotides were annealed as follows: Complementary strands were mixed at a 1:1 molar ratio in a micro centrifuge tube. The mixture was diluted to a final concentration of 1 pmol/μl with a buffer solution of 10 mM Tris, 1 mM EDTA, and 50 mM NaCl (pH 8.0). Mixes were incubated at 95° C. for 5 min, and then the heat was reduced gradually for 70 min, until reaching 4° C. The annealed oligonucleotides were digested along with the PsiCHECK™2 vector with SgfI and PmeI and ligated at the 3′-UTR (downstream) of the Renilla luciferase reporter gene in the PsiCHECK™-2vector. Insert sequences were further confirmed in two ways: enzymatic digestion and sequencing.
(§3) MCF7 cells were seeded 24 h prior to transfection in 96 well plates (2.0×10^4 cells/well). For testing the sensitivity of the assay, antagomiRs and pre-miRs against miR-10b were used at a final concentration of 100 nM. For testing small molecule miRNA inhibitors, the compounds of interest were added to a final concentration of 10 μM. The assay was done in MCF7 or MDA-MB-231 cells at approximately 60% confluence using Lipofectamine in Opti-Mem media with the final vector concentration of 250 ng/mL. All transfections were performed in triplicate for statistical analysis. The cells were incubated at 37° C. for 6 h, followed by replacement of the transfected media with fresh media. After 48 h incubation, the media was removed, and cells were lysed and assayed with a Dual Luciferase Assay Kit (Promega) using a Vi-Tech luminometer. The ratio of Renilla to firefly luciferase expression was calculated for each of the triplicates.

miR-10b [2] = test: Luciferase reporter assay of miR-10b inhibition, MCF7 cells; type: cell-based; settings: Homo sapiens, MCF7, 48 h
From the text: as §1, §2, §3

mature miR-10b = test: RT-qPCR of mature miR-10b; type: cell-based, human; settings: AGS gastric cell line; normalized to U6; vs DMSO
Method: (§4) Potential small molecule miRNA inhibitors were tested in MCF7 cells, a metastatic cell line (MM231) and an HCC cell line (HepG2) through RT-qPCR. Cells were seeded in 12-well plates 24 h before treatments at a confluence of 50-60%. They were treated at a concentration of 10 μM linifanib (positive control) or DMSO (negative control), and RNA was collected after 24 and 48 h. MicroRNA expression was tested using TaqMan microRNA assay (Applied Biosystems). The cDNA was synthesized using TaqMan Reverse Transcription Reagents kit (Applied Biosystems) and employed for quantitative RT-qPCR analysis together with TaqMan probes and SsoFastSupermix (Bio-rad). Primers and probes were purchased for hsa-miR-10b, hsa-pri-miR-10b, U6, and U48 snRNA that was used as an internal control.
(§5) To detect the levels of the precursor sequences, cDNA was synthesized using the SuperScript III cDNA kit (Invitrogen). Diluted cDNA was used for RT-qPCR analysis using iQ SYBR Green Supermix (Bio-Rad) with primers designed by in-house. Experiments were performed in triplicate; treated samples were compared to the DMSO-treated controls and normalized to the internal control. Relative expression levels were calculated using the 2-ΔCt method.

pre-miR-10b = test: RT-qPCR of precursor miR-10b; type: cell-based, human; settings: AGS gastric cell line; normalized to U6; vs DMSO
Method: as §4, §5

[3] = Table 5, MDA-MB-231, 10 μM compound, vs negative control (DMSO), mean of triplicate, read-out: n-fold increase in luciferase expression, Mean
[4] = Table 5, MDA-MB-231, 10 μM compound, vs negative control (DMSO), replicate #1, read-out: n-fold increase in luciferase expression, #1
[5] = Table 5, MDA-MB-231, 10 μM compound, vs negative control (DMSO), replicate #2, read-out: n-fold increase in luciferase expression, #2
[6] = Table 5, MDA-MB-231, 10 μM compound, vs negative control (DMSO), replicate #3, read-out: n-fold increase in luciferase expression, #3
[7] = Table 7, MDA-MB-231, second biological replicant, 10 μM compound, mean of triplicate, read-out: n-fold increase in luciferase expression, Mean
[8] = Table 7, MDA-MB-231, second biological replicant, 10 μM compound, replicate #1, read-out: n-fold increase in luciferase expression, #1
[9] = Table 7, MDA-MB-231, second biological replicant, 10 μM compound, replicate #2, read-out: n-fold increase in luciferase expression, #2
[10] = Table 7, MDA-MB-231, second biological replicant, 10 μM compound, replicate #3, read-out: n-fold increase in luciferase expression, #3
[11] = Table 3, MCF7, 10 μM compound, vs negative control (DMSO), mean of triplicate, read-out: n-fold increase in luciferase expression, Mean
[12] = Table 3, MCF7, 10 μM compound, vs negative control (DMSO), replicate #1, read-out: n-fold increase in luciferase expression, #1
[13] = Table 3, MCF7, 10 μM compound, vs negative control (DMSO), replicate #2, read-out: n-fold increase in luciferase expression, #2
[14] = Table 3, MCF7, 10 μM compound, vs negative control (DMSO), replicate #3, read-out: n-fold increase in luciferase expression, #3
[15] = Table 6, MCF7, second biological replicant, 10 μM compound, mean of triplicate, read-out: n-fold increase in luciferase expression, Mean
[16] = Table 6, MCF7, second biological replicant, 10 μM compound, replicate #1, read-out: n-fold increase in luciferase expression, #1
[17] = Table 6, MCF7, second biological replicant, 10 μM compound, replicate #2, read-out: n-fold increase in luciferase expression, #2
[18] = Table 6, MCF7, second biological replicant, 10 μM compound, replicate #3, read-out: n-fold increase in luciferase expression, #3
[19] = Table 4, MCF7, 10 μM compound, vs negative control (DMSO), mean of triplicate, read-out: n-fold increase in luciferase expression, Mean
[20] = Table 4, MCF7, 10 μM compound, vs negative control (DMSO), replicate #1, read-out: n-fold increase in luciferase expression, #1
[21] = Table 4, MCF7, 10 μM compound, vs negative control (DMSO), replicate #2, read-out: n-fold increase in luciferase expression, #2
[22] = Table 4, MCF7, 10 μM compound, vs negative control (DMSO), replicate #3, read-out: n-fold increase in luciferase expression, #3

| Structure (SMILES) | fold induction at 10 µM (miR-10b [1]; [3]) | fold induction at 10 µM (miR-10b [1]; [4]) | fold induction at 10 µM (miR-10b [1]; [5]) | fold induction at 10 µM (miR-10b [1]; [6]) | fold induction at 10 µM (miR-10b [1]; [7]) | fold induction at 10 µM (miR-10b [1]; [8]) | fold induction at 10 µM (miR-10b [1]; [9]) | fold induction at 10 µM (miR-10b [1]; [10]) | fold induction at 10 µM (miR-10b [2]; [11]) | fold induction at 10 µM (miR-10b [2]; [12]) | fold induction at 10 µM (miR-10b [2]; [13]) | fold induction at 10 µM (miR-10b [2]; [14]) | fold induction at 10 µM (miR-10b [2]; [15]) | fold induction at 10 µM (miR-10b [2]; [16]) | fold induction at 10 µM (miR-10b [2]; [17]) | fold induction at 10 µM (miR-10b [2]; [18]) | fold induction at 10 µM (miR-10b [2]; [19]) | fold induction at 10 µM (miR-10b [2]; [20]) | fold induction at 10 µM (miR-10b [2]; [21]) | fold induction at 10 µM (miR-10b [2]; [22]) | other results |
| --- | --- | --- | --- | --- | --- | --- | --- | --- | --- | --- | --- | --- | --- | --- | --- | --- | --- | --- | --- | --- | --- |
| Cc1ccc(F)c(NC(=O)Nc2ccc(-c3cccc4[nH]ncc34)cc2)c1 [Example 3, 1-(4-(1H-indazol-4-yl)phenyl)-3-(2-fluoro-5-methylphenyl)urea] | 0.46 | 0.423 | 0.643 | 0.312 | 0.17 | 0.193 | 0.149 | 0.163 | 0.26 | 0.238 | 0.246 | 0.292 | 0.18 | 0.257 | 0.176 | 0.117 |  |  |  |  |  |
| Cc1ccc(F)c(NC(=O)Nc2ccc(-c3cccc4c3NC(=O)C4)cc2)c1 [Example 7, 1-(2-fluoro-5-methylphenyl)-3-(4-(2-oxoindolin-7-yl)phenyl)urea] | 1.05 | 1.01 | 1.09 | 1.05 | 1.19 | 1.16 | 1.31 | 1.11 |  |  |  |  | 1.25 | 1.86 | 0.957 | 0.935 | 2.41 | 1.34 | 5.06 | 0.822 |  |
| Nc1n[nH]c2cccc(-c3ccc(NC(=O)Nc4ccncc4)cc3)c12 [Example 9, 1-(4-(3-amino-1H-indazol-4-yl)phenyl)-3-(pyridin-4-yl)urea] | 1.41 | 1.14 | 2.05 | 1.05 | 1.56 | 1.39 | 1.61 | 1.67 |  |  |  |  | 1.29 | 2.17 | 0.859 | 0.84 | 2.11 | 0.94 | 4.2 | 1.2 |  |
| Cc1ccc(F)c(NC(=O)Nc2ccc(-c3cnc(N)nc3)cc2)c1 [Example 5, 1-(4-(2-aminopyrimidin-5-yl)phenyl)-3-(2-fluoro-5-methylphenyl)urea] | 1.04 | 1.13 | 1.01 | 0.99 | 1.3 | 0.26 | 1.57 | 2.06 | 2.86 | 1.99 | 1.49 | 5.1 | 2.12 | 3.03 | 1.73 | 1.59 |  |  |  |  | level of mature miR-10b (mature miR-10b): reduce the level of mature miR-10b; expression of pre-miR-10b (pre-miR-10b): increased expression of pre-miR-10b |
| Cc1ccc(F)c(NC(=O)Nc2ccc(-c3ccccn3)cc2)c1 [Example 8, 1-(2-fluoro-5-methylphenyl)-3-(4-(pyridin-2-yl)phenyl)urea] | 0.78 | 0.566 | 0.991 | 0.793 | 1.15 | 1.39 | 1 | 1.05 |  |  |  |  | 1.24 | 1.82 | 1.04 | 0.857 | 3.92 | 4.6 | 6.07 | 1.08 |  |
